{"source": "patent US20050152835A1", "about": "“Technetium-99M glucarate methods of use for monitoring tissues” (priority 2003, published 2005)", "key": {"[1]": {"system": "MCF7 breast tumors", "assay": "FASTSPECT dynamic imaging of MCF7 tumor xenografts (MCF7/S and MCF7/D40 together)", "type": "in vivo, SCID mice", "protocol": "(§1) Tumor cell lines used. MCF7/S: Cells are parental, drug (doxorubicin) sensitive, breast carcinoma cells. MCF7/D40: Cells were generated in vitro by successive culturing parental MCF7 cells in slowly increasing concentrations of doxorubicin with a total selection time of 31 months. Twenty-eight SCID mice were studied. MCF7/S or MCF7/D40 tumors were grown for 10-14 days after subcutaneous injection of 1×10^6 cells into the right thigh. Groups of mice with the xenografted tumors included: (MCF7/S group: MIBI: n=9; GLA: n=8) and (MCF7/D40 group: MIBI: n=6; GLA: n=5).\n(§2) The dynamic imaging system SPECT consisted of 24 small modular gamma cameras. Each modular camera consists of a 10 cm×10 cm NaI(Tl) scintillation crystal, 4 square (5 cm×5 cm) Hamamatsu photomultiplier tubes. The system included a cylindrical aperture with twenty four 1-mm diameter pinholes drilled in the aperture. A point source in the center of the field of view is projected simultaneously to the center of each camera. Total magnification is 3.5 in a 3.0 cm×3.2 cm×3.2 cm field of view. The spatial resolution of the system is about 1.0 mm, with a sensitivity of 13.3 cps/μCi.\n(§3) ^99mTc-GLA or ^99mTc-MIBI (5-8 mCi, 185-296 MBq) was injected via a jugular vein catheter. Dynamic images were acquired for 2 hours. Twenty-four projections were obtained, one from each camera. Each scintillation event within the camera's NaI crystal was registered as the digitized outputs from the camera's four photomultiplier tubes. The four photomultiplier outputs were compared to a 20-bit look-up table derived from a calibration procedure that involved moving a collimated source across the camera face.\n(§4) Tumor image reconstruction was performed using 100 iterations of the maximum-likelihood expectation-maximization (ML-EM) algorithm. Using SlicerDicer software, three-dimensional images were computed to provide images in a 33×49×49 voxels format, and generate tomographic transaxial, coronal and sagittal slices with one-pixel thickness (1.0 mm). Regions of interest (ROI) over the tumors were created and applied to the dynamic images for determining time-activity curves. The percent washout rate relative to the peak uptake of the tumors were calculated."}, "[2]": {"system": "MCF7/S tumor xenograft", "assay": "FASTSPECT dynamic imaging and tumor washout kinetics, drug-sensitive xenograft", "type": "in vivo, SCID mice", "protocol": "as §1, §2, §3, §4"}, "[3]": {"system": "MCF7/D40 tumor xenograft", "assay": "FASTSPECT dynamic imaging and tumor washout kinetics, drug-resistant (Pgp positive) xenograft", "type": "in vivo, SCID mice", "protocol": "as §1, §2, §3, §4"}, "[4]": {"system": "plasmocytoma (localized myeloma)", "assay": "Scintigraphy of a patient with plasmocytoma of T8", "type": "in vivo, human", "protocol": "A patient complaining of invalidation pain in the spine (mid-thorax) for about two months. Peak of monoclonal IgG-k in serum. Bence-Jones protein in urine. Spine CT. lytic lesion of T8, with soft tissue infiltration. […] Uptake was obvious in the early images, 15 and 30 min p.i., late acquisition, 6 hr p.i., made the tracer uptake much more obvious."}, "[5]": {"system": "BT20 tumors", "settings": "cited from earlier work"}}, "data": [{"substance": "^99mTc-glucarate", "values": [{"measurement": "time tumors remained detectable after injection", "setting": "[1]; Example 3", "result": "at least 2 hrs"}, {"measurement": "time to initial visualization of tumors after injection", "setting": "[1]; FASTSPECT imaging, all tumors of the glucarate groups, i.v.", "result": "≤ 5", "unit": "min"}, {"measurement": "time to unequivocal localization/visualization of tumors after injection", "setting": "[1]; FASTSPECT imaging, i.v.", "result": "10 to 30", "unit": "min"}, {"measurement": "time radioactive accumulation in the MCF7 tumors remained post-injection", "setting": "[1]; dynamic images", "result": "at least 120 minutes"}, {"measurement": "two-hour fractional washout (% peak activity)", "setting": "[2]", "result": "72.8±3.1", "unit": "%"}, {"measurement": "time after injection at which tumor was first visualized/detected", "setting": "[2]; FASTSPECT", "result": "≤ 5", "unit": "min"}, {"measurement": "time after injection until which tumor stayed visualized/detectable", "setting": "[2]; FASTSPECT, 120 min acquisition", "result": "at least 120 min"}, {"measurement": "two-hour fractional washout (% peak activity)", "setting": "[3]", "result": "71.9±2.9", "unit": "%"}, {"measurement": "scan finding at diagnosis", "setting": "[4]; patient with lytic lesion of T8, posterior view", "result": "focally increase tracer uptake in the bone lesion and in soft tissue"}, {"measurement": "scan finding after about 1 year of stabilization and external radiotherapy", "setting": "[4]; posterior view", "result": "normal physiologic tracer distribution, without areas of focally increased uptake"}, {"measurement": "tumor uptake compared with 99mTc-DTPA", "setting": "[5]; BT20 breast tumors", "result": "significantly greater"}, {"measurement": "tumor to non-tumor (shoulder region tissue) ratio", "setting": "[5]; twelve hours after intravenous injection", "result": 20.53}, {"measurement": "tumor uptake compared with 99mTc-sestamibi", "setting": "[5]; xenografted BT20 tumors", "result": "significantly higher uptake"}]}]}
